Series [1] addresses T1, E. coli PhoR (PhoR^E) (Escherichia coli, UniProt P08400).
T1 construct: The catalytic portion (DHp and CA domain) of E. coli PhoR (PhoR^E); made in house; host or cells: E. coli RIL
As to the kind of experiment: In vitro autophosphorylation kinase assay with γ-32P-ATP, PhoR^E. The format is biochemical. The settings on record: for pIC50: autophosphorylation, one time point (30 sec), 10% DMSO; for inhibition at 2000 µM: 2 mM, 30 sec, compared to negative control. Here is the method:
(§1) To evaluate the inhibitory capacity of selected hits from DSF, SBVS and LBSS in vitro autophosphorylation kinase assays with γ-^32P-ATP were performed as previously described. Ligands were dissolved in 100% DMSO. […] Controls lacking ligands contained an equal concentration of DMSO. Inhibition of autophosphorylation was determined by incubating 0.12 mg/ml (≈4 μM) HK and up to 20 mM fragment in kinase buffer (50 mM Tris HCl, pH 8.5, 50 mM KCl, 5 mM MgCl2, 0.5 mM EDTA and 0.1 mM DTT). Autophosporylation reactions were initiated by addition of 0.1 μCi/μl γ-^32P-ATP containing from 0.03 to 0.06 μM ATP (final concentrations). Autophosphorylation was quenched with 2xSDS-PAGE sample buffer supplemented with 50 mM EDTA. […] After electrophoresis, the bottoms of the gels were removed to lower the background from the unincorporated radiolabeled ATP. Gels were dried without staining on a Bio-Rad Gel Air drying system and the phosphorylated protein was quantified by phosphor-imaging. Prism GraphPad was used for curve fitting and statistical analysis.

Series [2] addresses T2, S. pneumoniae WalK (Streptococcus pneumoniae, UniProt Q8DPL8).
T2 construct: WalK (amino acids from 208 to 449); N-terminal His6-3C site of vector pOPINF (own knowledge of the vector); made in house; host or cells: E. coli RIL
Briefly: In vitro autophosphorylation kinase assay with γ-32P-ATP, WalK. The format is biochemical. The settings on record: autophosphorylation, one time point (30 sec), 10% DMSO. The procedure:
as §1

Series [3] concerns Staphylococcus aureus. Briefly: Antibacterial susceptibility testing (MIC/MBC), S. aureus. Type of series: cell-based. Particulars: for MIC / MBC: Staphylococcus aureus. Here is the method:
(§2) Minimal inhibitory concentrations (MICs) were determined following a standard double-dilution method. […] For S. pneumoniae MICs were determined by adapting the standard double-dilution method to anaerobic conditions and of this microorganism (use of Todd Hewitt Yeast extract with 200 U/mL of catalase and continuous monitoring of growth).

Series [4] has as its system Staphylococcus epidermidis. As to the kind of experiment: Antibacterial susceptibility testing (MIC/MBC), S. epidermidis. Type of series: cell-based. Particulars: Staphylococcus epidermidis. Here is the method:
as §2

The test system of series [5] is Escherichia coli. As to the kind of experiment: Antibacterial susceptibility testing (MIC/MBC), E. coli. The format is cell-based. Particulars: Escherichia coli; for MIC: read-out: MIC E. coli CFT 073. The procedure: as §2
Series [6] is described as follows: Solubility in kinase buffer. Type of series: physicochemical. The settings on record: kinase buffer in the presence of 10% DMSO.
Series [7] concerns the target S. aureus PhoR (PhoR^S) (Staphylococcus aureus, UniProt Q2FXN7). Briefly: In vitro autophosphorylation kinase assay with γ-32P-ATP, PhoR^S. The format is biochemical. The settings on record: autophosphorylation, one time point (30 sec), 10% DMSO. The procedure:
(§3) To evaluate the inhibitory capacity of selected hits from DSF, SBVS and LBSS in vitro autophosphorylation kinase assays with γ-^32P-ATP were performed as previously described. Ligands were dissolved in 100% DMSO. […] Controls lacking ligands contained an equal concentration of DMSO. Inhibition of autophosphorylation was determined by incubating 0.12 mg/ml (≈4 μM) HK and up to 20 mM fragment in kinase buffer (50 mM Tris HCl, pH 8.5, 50 mM KCl, 5 mM MgCl2, 0.5 mM EDTA and 0.1 mM DTT). Autophosporylation reactions were initiated by addition of 0.1 μCi/μl γ-^32P-ATP containing from 0.03 to 0.06 μM ATP (final concentrations). Autophosphorylation was quenched with 2xSDS-PAGE sample buffer supplemented with 50 mM EDTA. Samples were applied without heating to 15% (w/v) Tris-glycine SDS-polyacrylamide gels. After electrophoresis, the bottoms of the gels were removed to lower the background from the unincorporated radiolabeled ATP. Gels were dried without staining on a Bio-Rad Gel Air drying system and the phosphorylated protein was quantified by phosphor-imaging. Prism GraphPad was used for curve fitting and statistical analysis.

Series [8] concerns the target T3, T. maritima HK853 (Thermotoga maritima, UniProt Q9WZV7).
T3 sequence (Q9WZV7 232-489): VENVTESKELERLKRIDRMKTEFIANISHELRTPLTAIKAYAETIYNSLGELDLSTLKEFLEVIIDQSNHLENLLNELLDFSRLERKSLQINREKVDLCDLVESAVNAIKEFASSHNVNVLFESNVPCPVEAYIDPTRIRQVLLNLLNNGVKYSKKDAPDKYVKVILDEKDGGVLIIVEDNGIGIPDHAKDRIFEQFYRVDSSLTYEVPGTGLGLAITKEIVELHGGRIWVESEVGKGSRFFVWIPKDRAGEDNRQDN
Briefly: In vitro autophosphorylation kinase assay with γ-32P-ATP, HK853. Type of series: biochemical. The procedure:
as §3

[9] abbreviates: DSM20231, strain DSM 20231, read-out: MIC S. aureus DSM 20231.
Where [10] appears, read: DSM20044, strain DSM 20044, read-out: MIC S. epidermidis DSM 20044.
Setting [11] is: DSM20231, read-out: MBC S. aureus DSM 20231.
[12] abbreviates: DSM20231, read-out: MIC S. aureus DSM 20231.
Where [13] appears, read: DSM20044, read-out: MIC S. epidermidis DSM 20044.

pIC50: −log10 of the molar value. Values after ≈ are worked out from the molar mass of the structure shown. Like-named read-outs stand apart in the source and are kept apart here.

S. aureus PhoR (PhoR^S), sequence (Q2FXN7 entry or part of it): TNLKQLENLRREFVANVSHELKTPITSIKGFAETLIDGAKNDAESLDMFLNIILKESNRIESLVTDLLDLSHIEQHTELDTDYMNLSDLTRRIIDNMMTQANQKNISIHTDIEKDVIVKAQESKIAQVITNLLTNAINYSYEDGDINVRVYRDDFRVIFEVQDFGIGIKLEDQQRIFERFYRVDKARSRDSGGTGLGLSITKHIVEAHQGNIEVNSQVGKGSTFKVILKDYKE
T1 sequence (P08400 210-425): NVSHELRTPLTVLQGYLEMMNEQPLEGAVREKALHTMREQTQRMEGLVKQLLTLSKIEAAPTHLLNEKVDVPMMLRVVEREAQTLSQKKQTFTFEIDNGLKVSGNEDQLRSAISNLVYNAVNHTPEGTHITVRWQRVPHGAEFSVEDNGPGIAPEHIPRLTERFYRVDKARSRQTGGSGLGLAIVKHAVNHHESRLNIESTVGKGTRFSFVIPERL
T2 sequence (Q8DPL8 208-449): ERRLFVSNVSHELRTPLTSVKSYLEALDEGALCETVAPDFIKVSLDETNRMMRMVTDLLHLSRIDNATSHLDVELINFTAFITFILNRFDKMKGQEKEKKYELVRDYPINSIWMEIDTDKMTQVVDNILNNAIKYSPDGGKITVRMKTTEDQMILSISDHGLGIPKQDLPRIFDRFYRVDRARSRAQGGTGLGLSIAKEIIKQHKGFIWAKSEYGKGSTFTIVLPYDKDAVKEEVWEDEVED

Usually pIC50 stands for the IC50 on a negative log10 scale, so that one unit is a factor of ten. A word on the MIC: it is the smallest concentration in the dilution series that meets the test's criterion for growth inhibition. Regarding `Brc1ccc(C2=CSC3=NCCN23)cc1` [F1.7], the pIC50 in series [1] (IC50 PhoR^E) and in series [2] (IC50 WalK) was < 2.70 in each case. Besides, the MIC in series [3] (setting [9]), in series [4] (setting [10]) and in series [5] (strain CFT 073) was > 500 mg/L throughout.
For `COc1ccc(-c2csc(N)n2)cc1OC` [F1.9], the pIC50 in series [1] (IC50 PhoR^E) and in series [2] (IC50 WalK) was < 2.70 throughout. The MIC in series [3] (setting [9]), in series [4] (setting [10]) and in series [5] (strain CFT 073) was > 500 mg/L throughout.
With `CC(C)(C)c1ccc(OCc2c[nH]cn2)cc1` [F1.10], the pIC50 in series [1] (IC50 PhoR^E) and in series [2] (IC50 WalK) was < 2.70 throughout. Also, the minimum inhibitory concentration (MIC) in series [3] (setting [9]), in series [4] (setting [10]) and in series [5] (strain CFT 073) was > 500 mg/L in each case.
As a reminder, the inhibition is the drop in the measured response relative to a control, in per cent. Lower therefore signals a response near the control. Broadly, the MBC is the smallest concentration meeting the test's criterion for killing. `Nc1ccc2c(c1)[nH]c1ccccc12` [F2.1]: the inhibition at 2000 µM in series [1] was > 50%. Besides, the values for the pIC50 in series [1] (read-out: IC50 PhoR^E) and in series [2] (read-out: IC50 WalK) were 3.62 and < 2.70, respectively. In addition, in series [3] (setting [11]), the MBC was > 500 mg/L. The minimal inhibitory concentration (MIC) in series [3] (setting [12]) was 8 mg/L (≈ 43.9 µM); in series [4] (setting [13]), > 500 mg/L; in series [5], > 500 mg/L. Further, the “solubility in kinase buffer” value in series [6] was “good solubility”.
Take `O=c1c2ccccc2[nH]c2ccc(O)cc12` [F2.2]: in series [1], the inhibition at 2000 µM was > 50%. Further, the pIC50 in series [1] (IC50 PhoR^E) is > 2.70; in series [2] (IC50 WalK) it was < 2.70. The MIC in series [3] (setting [9]), in series [4] (setting [10]) and in series [5] (strain CFT 073) was > 500 mg/L each time.
Turning to `c1ccc2c(c1)[nH]c1ccccc12` [F2.5], the pIC50 in series [1] (read-out: IC50 PhoR^E) and in series [2] (read-out: IC50 WalK) was < 2.70 each time. Also, the MIC in series [3] (setting [12]), in series [4] (setting [13]) and in series [5] was > 500 mg/L throughout.
Take `Cn1c2ccccc2c2ccccc21` [F2.6]: the pIC50 in series [1] (read-out: IC50 PhoR^E) and in series [2] (read-out: IC50 WalK) was < 2.70 each time. Besides, the MIC in series [3] (setting [12]), in series [4] (setting [13]) and in series [5] was > 500 mg/L throughout. Also, in series [5] (read-out: MBC E. coli CFT 073), the minimal bactericidal concentration (MBC) was 500 mg/L (≈ 2760 µM).
As to `c1ccc2[nH]ccc2c1` [F2.7], the negative logarithm of the IC50 (pIC50) in series [1] (read-out: IC50 PhoR^E) and in series [2] (read-out: IC50 WalK) was < 2.70 in each case. The minimal bactericidal concentration (MBC) in series [3] (setting [11]) was > 500 mg/L. The MIC was 500 mg/L (≈ 4270 µM) in series [3] (setting [12]), > 500 mg/L in series [4] (setting [13]) and 500 mg/L (≈ 4270 µM) in series [5].
As for `CCc1ccc2[nH]c3ccccc3c2c1` [F2.9], the inhibition at 2000 µM in series [1] is > 50%. For the same compound, the pIC50 is > 2.70 in series [1] (IC50 PhoR^E) and < 2.70 in series [2] (IC50 WalK). The minimum bactericidal concentration (MBC) in series [3] (DSM20231, strain DSM 20231, read-out: MBC S. aureus DSM 20231) was > 500 mg/L. For the same compound, the MIC in series [3] (setting [9]), in series [4] (setting [10]) and in series [5] (strain CFT 073) was > 500 mg/L each time.
`O=C(CCN1c2ccccc2Sc2ccccc21)OCc1cc(=O)n2ccsc2n1` [S1]: the pIC50 in series [7] (IC50 PhoR^S), in series [1] (IC50 PhoR^E), in series [8] and in series [2] (IC50 WalK) was < 2.30 each time. The MIC in series [3] (setting [9]), in series [4] (setting [10]) and in series [5] (strain CFT 073) was > 500 mg/L each time.
As for `CC(OC(=O)c1cccc(S(=O)(=O)N2CCc3ccccc3C2)c1)C(=O)NC(N)=O` (centres unmarked) [S2], the negative logarithm of the IC50 (pIC50) in series [7] (IC50 PhoR^S), in series [1] (IC50 PhoR^E), in series [8] and in series [2] (IC50 WalK) was < 2.30 throughout. The minimum inhibitory concentration (MIC) in series [3] (setting [9]), in series [4] (setting [10]) and in series [5] (strain CFT 073) was > 500 mg/L throughout.
Consider `CC(NC(=O)C1CC(=O)N(c2ccccc2)C1)c1cccc(NC(=O)c2ccccc2)c1` (centres unmarked) [S3], for which the negative logarithm of the IC50 (pIC50) in series [7] (IC50 PhoR^S), in series [1] (IC50 PhoR^E), in series [8] and in series [2] (IC50 WalK) was < 2.30 throughout. For the same compound, the minimum inhibitory concentration (MIC) in series [3] (setting [9]), in series [4] (setting [10]) and in series [5] (strain CFT 073) was > 500 mg/L throughout.
With `CNC(=O)NC(=O)CSc1nc2sc3c(c2c(=O)n1-c1ccccc1F)CCCC3` [S4], the pIC50 in series [7] (IC50 PhoR^S), in series [1] (IC50 PhoR^E), in series [8] and in series [2] (IC50 WalK) was < 2.30 throughout. Further, the minimum inhibitory concentration (MIC) in series [3] (setting [9]), in series [4] (setting [10]) and in series [5] (strain CFT 073) was > 500 mg/L each time.
As for `c1ccc2cc(CNc3ccc4c(c3)OCCO4)ccc2c1` [S7], the pIC50 is > 2.30 in series [7] (read-out: IC50 PhoR^S), < 2.30 in series [1] (IC50 PhoR^E), < 2.30 in series [8] and < 2.30 in series [2] (IC50 WalK). Moreover, the MIC in series [3] (setting [9]), in series [4] (setting [10]) and in series [5] (strain CFT 073) was > 500 mg/L in each case. Also, the “MBC S. aureus DSM 20231” value in series [3] (strain DSM 20231) was > 500 mg/L.
As to `CC(NCc1cccc2ccccc12)c1ccc(F)cc1` (centres unmarked) [S8], the pIC50 was > 2.30 in series [7] (read-out: IC50 PhoR^S), < 2.30 in series [1] (IC50 PhoR^E), < 2.30 in series [8] and < 2.30 in series [2] (IC50 WalK). Further, the MIC in series [3] (setting [9]), in series [4] (setting [10]) and in series [5] (strain CFT 073) was > 500 mg/L in each case.
As for `CC(NCc1cccc2ccccc12)c1cccc(F)c1` (centres unmarked) [S9], the negative-log IC50 (pIC50) in series [7] (IC50 PhoR^S), in series [1] (IC50 PhoR^E), in series [8] and in series [2] (IC50 WalK) was < 2.30 in each case. Moreover, the MIC in series [3] (setting [9]), in series [4] (setting [10]) and in series [5] (strain CFT 073) was > 500 mg/L each time.
Turning to `CC(NCc1cccc(F)c1)c1ccc2ccccc2c1` (centres unmarked) [S10], the pIC50 in series [7] (IC50 PhoR^S), in series [1] (IC50 PhoR^E), in series [8] and in series [2] (IC50 WalK) was < 2.30 in each case. The minimal inhibitory concentration (MIC) in series [3] (setting [9]), in series [4] (setting [10]) and in series [5] (strain CFT 073) was > 500 mg/L throughout.

Source of the values: PMC4865847, “Putative histidine kinase inhibitors with antibacterial effect against multi-drug resistant clinical isolates identified by in vitro and in silico screens” (Scientific Reports, 2016).
